Experimental data taken from patent US20230340012A1, “NATURAL AND SYNTHETIC COMPOUNDS FOR TREATING CANCER AND OTHER DISEASES” (PACIFIC ARROW LIMITED, priority 2009, published 2023).
Several values for one entry are separate records, joined by “and”; a condition that tells them apart may be missing. Identical values can stand only once.

Experiments:
Assay type in all cases: cell-based, human
[1] = test system: DR5 (TNFRSF10B) in ES2 cells; assay: Induction of DR5 in ES2 cells, Western blot
Method: 1). Cells and drug-treatment: ES2 cells (Ovarian cancer cells) were cultured in RPMI1640 medium with 10% FBS, antibiotics (Pen Strep) and L-Glutamine in a 37° C., 5% CO2 incubator. Cells in log-growth phase were treated with Tig-R (10 ug/ml), or DMSO (as control) for 2 days.
(§1) 2). Total cell protein extraction: Drug-treated cells were collected, pelleted with centrifugation. The cell pellet was extracted with SDS-Sample buffer (containing PMSF and protease inhibitors cocktail). About 0.1 gram cell pellet was extracted in 1 ml of extraction buffer. The cell extract was then incubated in boiling water bath for 6 minutes with occasionally vortexing. The protein extract was immediately frozen in -80° C. before used.
3). SDS gel electrophoresis: 10-20 ug of protein sample was loaded into each lane of a 10% SDS gel. Electrophoresis was conducted with 100 volt constant for 2 hours.
(§2) 4). Western Blot: Separated proteins from SDS gel were transferred to a nitrocellulose membrane, which was blocked with 5% non-fat dry milk. The membrane was then exposed to 1st antibody (anti-TNFRSF10B) over night, then washed. The membrane was then incubated in 2nd antibody (anti-mouse-AP conjugated) for an hour, then washed. The immuno-bands were developed with BCIP/NBT substrate.
5. Another SDS gel with same protein loading was stained with Coomassie Brilliant Blue (CBB) for protein staining.
A. Cells and drug-treatment: HepG2 cells (liver cancer cells), CAPAN cells, ES2 cells (Ovary cell) were cultured in DMEM medium with 10% FBS, antibiotics (Pen Strep) and L-Glutamine in a 37° C., 5% CO2 incubator. Cells in log-growth phase were treated with Tig-R (10 ug/ml), Tig-S (4 ug/ml) or DMSO (as control) for 2 days.
as §1, with “B.” for “2).”
C. SDS gel electrophoresis: 10-20 ug of protein sample was loaded into each lane of a 10% SDS gel. Electrophoresis was conducted with 100 volt constant for 2 hours.
as §2, with “D.” for “4).”
E. Another SDS gel with same sample loading was stained with Coomassie Brilliant Blue (CBB) for protein staining.
F. Determination of Western blot band intensity: The band-images of Western blot were captured with a digital camera and the intensity of bands was determined using “Image J” software.

HepG2 cells = assay: Combined effect of anti-DR5 and Tig-R in HepG2 cells, MTT
Method: Cells Culture: HepG2 cells (liver cancer cells) were cultured in DMEM medium supplemented with 10% FBS, antibiotics (Pen Strep) and L-Glutamine. Cells were incubated in a 37° C., 5% CO2 incubator.
Antibody: Antibody against Human TRAIL R2/TNFRSF 10B, (from R&D Systems cat# MAB631-100).
Drug: Tig-R (5 and 7.5 ug/ml in culture medium).
Treatment. Cells in log-growth phase were used. Cells were plated in 96-welled plate with 10 K/well over night before treatment.
Antibodies are serially diluted with medium (started from 1 ug/ml) before adding to cell culture and incubated for 2 days.
For combination studies, Tig-R (5 ug/ml or 7.5 ug/ml) were added together with antibody. After a treatment for 2 days, the quantity of live cells is determined with MTT assay*. The percentage of cell growth with drugs was determined by comparing to those of no-drug (DMSO) control.
MTT assay. Cell growth activity was determined by MTT assay (Carmichael et al.,). […] The formation of formazan was dissolved with DMSO and the O.D. at 490 nm was measured by an ELISA reader. The MTT level of cells before drug-treatment was also measured (T0). The % cell-growth (%G) is calculated as: %G = (TD-T0 / TC-T0) × 100 (1) where TC or TD represent O.D. readings of control or drug-treated cells.
When T0 > TD, then the negative growth (cytotoxicity) is expressed as - % of the control and is calculated as: - %G = (TD-T0 / T0) × 100.

Jurkat cells = assay: Agonist activity of anti-DR5 antibody with Tig-R in Jurkat cells, MTT
Method: Experiment 44: Agonist activity of […] anti-DR5 antibody with Tig-R in Jurkat cells Jurkat cells (Human Acute T-cell leukemia) were cultured in RPMI1640 medium with 10% FBS, antibiotics (Pen Strep) and L-Glutamine in a 37C, 5% CO2 incubator. Cells in log-growth phase (about 0.5 million cells per ml) were treated with antibody (AB) or/and Tig-R. The antibody is Human TRAIL R2/TNFRSF 10B Antibody from R&D (MAB631-100). Treatment time is 2 days. Inhibition of cell growth after treatment was determined by MTT assay.
Conditions for combination studies: Tig-R (2.5 ug/ml) was added together with AB (2-8 ng/ml). Cells

[2] = ES2 cells, Tig-R, 2 days, single experiments 2-5

24,28-O-Tigloyl-3β,16α, 21β, 22a, 24β, 28-hexahydroxyolean-12-ene [Tig-R]
increase of DR5 over DMSO control cells ([1]; ES2, Tig-R 10 ug/ml, 2 days (Experiment 46)): 61%
increase of DR5 ([1]; ES2 cells, 10 ug/ml, 2 days (Experiment 42)): at least 2 folds
DR5 band intensity, % of DMSO, Average (%) ([1]; ES2 cells, Tig-R, 2 days, average of 5 experiments): 161%
DR5 Western blot band intensity (Image J) [1, 2]: 25103 and 17941 and 17133 and 19157
DR5 band intensity, % of DMSO [1, 2]: 185% and 200% and 148% and 113%
combined effect with anti-DR5 antibody (HepG2 cells; HepG2, Tig-R 5 or 7.5 ug/ml): synergistic
inhibition of HepG2 cells' growth (HepG2 cells; Tig-R alone 5 ug/ml, 2 days): 15-20%
combined effect with anti-DR5 antibody (Jurkat cells; Jurkat, Tig-R 2.5 ug/ml): synergistic
increase of inhibition with Tig-R (Jurkat cells; Tig-R 2.5 ug/ml added to antibody): about 20%
inhibition of cell growth (Jurkat cells; Tig-R 2.5 ug/ml alone, 2 days): 8%
